From patent publication US7829332B2, “Purines are self-renewal signals for neural stem cells, and purine receptor antagonists promote neuronal and glial differentiation therefrom” (Cornell Research Foundation, Inc., priority 2004, dated 2010)

What was measured:
Format in all cases: cell-based, mouse
neural progenitor cells = assay: Calcium imaging (fluo-4/am) of Ca2+i responses in 1-2 day cultures
Method: Neuronal cultures were prepared from E16 mice and maintained as earlier described (Nedergaard, M., Science 263:1768-1771 (1994), which is hereby incorporated by reference in its entirety). Cytosine arabinoside (20 μM) was added at 48 hr to eliminate proliferating cells. Neural progenitor cells were isolated from E13 mice as previously described (Morshead et al., Neuron 13:1071-82 (1994); Reynolds et al., Science 255:1707-10 (1992), which are hereby incorporated by reference in their entirety). The forebrains were collected in a Ca/Mg-free Hank's buffered saline solution (HBSS) and dissociated in 0.25% trypsin. The cells were resuspended at 4×10^6 cells/ml in DMEM/F12/N2 containing 10 ng/ml bFGF and 10 ng/ml EGF (Sigma, St. Louis, Mo.). The cells were plated at 4 ml/dish into 100 mm suspension culture plates and incubated at 37° C. in 5% CO2. The cells were passaged 2 to 3 times before use.
To test the idea that purinergic signaling is restricted to undifferentiated neural precursor cells, Ca^2+ responses to ATP were first examined as a function of time after plating either neural stem cells or differentiated neurons. Cultured mouse cortical neurons in near-pure neuronal cultures were loaded with fluo-4/am and exposed to either ATP (100 μM) or K^+ (60 mM). […] The responses to ATP fell by day 3 and were absent 9 days after plating. […] By 30 hours after plating, MAP2-defined neurons expressed substantially less P2Y receptor-immunoreactivity than did neighboring, MAP2^− cells (FIG. 1C). By 5 days, P2Y-immunoreactivity was restricted to GFAP^+ astrocytes.
ATP-induced Ca^2+i increments were inhibited by both suramin (100 μM) and reactive blue (RB; 30 μM), two mechanistically-unrelated inhibitors of purinergic signaling (FIG. 1D).

neural stem cells = assay: BrdU incorporation assay (mitotic index); settings: 4 hrs incubation
Method: (§1) For the BrdU incorporation assay, the cultures were incubated for 4 hrs in BrdU (Sigma, 10 μg/ml, 4 hrs), fixed and stained with rat monoclonal anti-BrdU (MAS250C, Harlan Sera-lab, Loughborough, UK; 1:200) and Cy3-conjugated goat anti-rat antibodies (Jackson ImmunoResearch, 1:300). Nuclei were visualized by Sytox (Molecular Probes, Inc.), and the mitotic index was calculated as the ratio of BrdU/Sytox positive nuclei. Limiting dilution analysis was performed as previously described (Keyoung et al., Nature Biotechnology 19:843-850 (2001); Uchida et al., Proc. Natl. Acad. Sci. 97:14720-14725 (2000), which are hereby incorporated by reference in their entirety).
Purinergic signaling has long-term effects on proliferation of numerous cell types, including rapidly replicating transformed cell lines (Burnstock, G., Arterioscler Thromb Vasc Biol 22:364-73 (2002); Michoud et al., Am J Respir Cell Mol Biol 27:732-8 (2002); Sauer et al., J Cell Sci 115:3265-73 (2002); Tu et al., Br J Pharmacol 129:1481-9 (2000), which are hereby incorporated by reference in their entirety). To better define the mitogenic effects of P2Y on neural progenitor cells, the mitogenic effects of ATP, its analogs, and its dephosphorylated metabolites were compared. To this end, BrdU incorporation by neural stem cells was quantified after 4 hrs incubation in each treatment.

neural progenitors = assay: Limiting dilution analysis of dissociated neurospheres; settings: for minimum density at which cells remain viable and expand: low density cultures
Method: as §1
To assess the requirement of P2Y signaling in self-renewal, neurospheres were dissociated to low density cultures and limiting dilution analysis performed, in the presence or absence of either suramin or RB. […] Thus, purinergic receptor activation was required not only for continued proliferation of neural progenitors, but also for survival at low plating densities.

neurospheres = assay: Flow cytometry of S-phase fraction and P27 expression; settings: for P27 expression: suramin 300 μM, RB 40 μM (FIG. 3D); for fraction of cells in S-phase: treated cultures, untreated control 16.4%±1.8%, p<0.001
Method: Cultures were stained for nestin (monoclonal clone Rat 401, IgG1, or rabbit antiserum, Chemicon, Temecula, Calif.; 1:2000), neuronal class III β-tubulin (monoclonal clone TuJ1, IgG2a, Covance, Philadelphia, Pa.; 1:500), MAP-2 (2a+2b) (monoclonal clone AP-20, ascites fluid, Sigma, St. Louis, Mo.; 1:500), Neuronal protein HuC/HuD (monoclonal 16A11, Molecular Probes, Eugene, Oreg.; 15 μg/ml), O4 (monoclonal IgM supernatant; O4 hybridoma, or GFAP (mouse clone GA5, or rabbit antiserum, Sigma; 1:500,), purinergic receptors P2Y1, P2Y2, P2Y4 (polyclonal, Alomone Labs, Jerusalem, Israel, 1:200), p27 (polyclonal, Chemicon, 1:2000), cyclins D1 and E (polyclonal, H-295 and M-20, respectively, Santa Cruz Biotechnology, Santa Cruz, Calif.; 1:100), Secondary antibodies were FITC-conjugated goat anti-mouse IgM (μ-chain specific, Sigma; 1:500), Cy3-conjugated goat-anti-rabbit IgG (H+ L) (1:200), Cy5-conjugated Goat-anti-mouse IgG (H+L) (both from Jackson ImmunoResearch, West Grove, Pa.; 1:100). Nuclei were counter-stained with Sytox Green or propidium iodide (Molecular Probes). P27, cyclin D and cyclin E FACS analyses were performed on an EPICS ELITE ESP flow cytometer/cell sorter (Beckman Coulter), as described (Deptala et al., Int J Oncol 15:861-71 (1999), which is hereby incorporated by reference in its entirety). The analysis of ectonucleotidase activity was adapted from Braun et al., “Expression of the Ecto-ATPase NTPDase2 in the Germinal Zones of the Developing and Adult Rat Brain,” Eur. J. Neurosci. 17:1355-64 (2003), which is hereby incorporated by reference in its entirety. Cryostat sections from paraformaldehyde-perfused animals were utilized. All experiments used either inosine diphosphate (IDP), adenosine diphosphate (ADP), or adenosine triphosphate (ATP) as substrate (1 mM), whereas substrate was omitted from controls.
The inhibition of proliferation afforded by suramin and RB was reversible. The percentage of cells in S-phase recovered by 50% at 8 h and by 80% at 24 hr after wash-out of the drugs.

neural spheres = assay: Lineage potential by clonal expansion and immunostaining; settings: 5 day exposure, then 7 days without inhibitors
Method: Cultures were stained for nestin (monoclonal clone Rat 401, IgG1, or rabbit antiserum, Chemicon, Temecula, Calif.; 1:2000), neuronal class III β-tubulin (monoclonal clone TuJ1, IgG2a, Covance, Philadelphia, Pa.; 1:500), MAP-2 (2a+2b) (monoclonal clone AP-20, ascites fluid, Sigma, St. Louis, Mo.; 1:500), Neuronal protein HuC/HuD (monoclonal 16A11, Molecular Probes, Eugene, Oreg.; 15 μg/ml), O4 (monoclonal IgM supernatant; O4 hybridoma, or GFAP (mouse clone GA5, or rabbit antiserum, Sigma; 1:500,), purinergic receptors P2Y1, P2Y2, P2Y4 (polyclonal, Alomone Labs, Jerusalem, Israel, 1:200), p27 (polyclonal, Chemicon, 1:2000), cyclins D1 and E (polyclonal, H-295 and M-20, respectively, Santa Cruz Biotechnology, Santa Cruz, Calif.; 1:100), Secondary antibodies were FITC-conjugated goat anti-mouse IgM (μ-chain specific, Sigma; 1:500), Cy3-conjugated goat-anti-rabbit IgG (H+ L) (1:200), Cy5-conjugated Goat-anti-mouse IgG (H+L) (both from Jackson ImmunoResearch, West Grove, Pa.; 1:100). Nuclei were counter-stained with Sytox Green or propidium iodide (Molecular Probes). P27, cyclin D and cyclin E FACS analyses were performed on an EPICS ELITE ESP flow cytometer/cell sorter (Beckman Coulter), as described (Deptala et al., Int J Oncol 15:861-71 (1999), which is hereby incorporated by reference in its entirety). […]

Row | SMILES | inhibition of ATP-induced Ca2+i increments (neural progenitor cells; reactive blue 30 μM) | proliferation (BrdU incorporation) (neural stem cells) | minimum density at which cells remain viable and expand (neural progenitors) | survival at low plating densities (neural progenitors) | P27 expression (neurospheres) | fraction of cells in S-phase (neurospheres) [%] | lineage potential of exposed progenitor cells (neural spheres) | inhibition of ATP-induced Ca2+i increments (neural progenitor cells; suramin 100 μM)
1 | Nc1c(S(=O)(=O)O)cc(Nc2ccc(Nc3nc(Cl)nc(Nc4cccc(S(=O)(=O)O)c4)n3)c(S(=O)(=O)O)c2)c2c1C(=O)c1ccccc1C2=O [RB, reactive blue 2] | inhibited | inhibited proliferation in a dose-dependent manner | increased the minimum density | died by 5 days in vitro | rose more strongly | 5.7±0.3 | neither suramin nor RB restricted the lineage potential | 
2 | Cc1ccc(C(=O)Nc2ccc(S(=O)(=O)O)c3cc(S(=O)(=O)O)cc(S(=O)(=O)O)c23)cc1NC(=O)c1cccc(NC(=O)Nc2cccc(C(=O)Nc3cc(C(=O)Nc4ccc(S(=O)(=O)O)c5cc(S(=O)(=O)O)cc(S(=O)(=O)O)c45)ccc3C)c2)c1 [suramin] |  | inhibited proliferation in a dose-dependent manner | increased the minimum density | died by 5 days in vitro | increase in the tumor suppressor P27 | 8.4±2.3 | neither suramin nor RB restricted the lineage potential | inhibited
